In patent US20060111551A1, “Peptide having HTLV-1-specific CTL-inducing activity” (priority 2003, published 2006):

Tests used:
[1] = system: CTL induced from post-HSCT patient R07; conditions: HLA-A24+ TOK cells pulsed with peptide; effector-to-target ratio 8; 18 hours; FIG. 5
Method: Following 18 hours of incubation, IFN-γ in the supernatant was measured by ELISA assay. Values represent the mean of duplicate assays.
IFN-γ production by the effector cells was measured by ELISA (Human IFN-γ ELISA Kit; Endogen, Woburn, Mass.) following 18 hours of incubation with target cells at various E/T ratios in duplicate.
Subsequently, epitope mapping of these CTL was performed. […] The present inventors stained these cultured PBMCs with the tetramer of HLA-A*2402/Tax301-309.

[2] = system: CTL line of post-HSCT patient #37; conditions: LCL-#36 cells pulsed with 10 mM peptide; effector-to-target ratio 10; FIG. 3
Method: Values represent the mean of specific lysis of triplicate assays.
Cytotoxic activities were measured by 6-hour ^51Cr-release assay at various effector-to-target (E/T) cell ratios as described previously (J. Natl. Cancer Inst. 93, 1775-1783, 2001; J. Virol. 76, 7010-7019, 2002). Specific cytotoxicity was calculated as ([experimental ^51Cr release−spontaneous ^51Cr release]/[maximum ^51Cr release−spontaneous ^51Cr release]×100%).

[3] = system: uncultured PBMC of recipient #37 and donor #36; test: IFN-γ ELISPOT assay of uncultured PBMC; type: cell-based, human; conditions: overnight incubation with 10 μg/ml peptide, mean±SD of triplicate
From the text: IFN-γ producing antigen-specific T cells were counted using IFN-γ-specific ELISPOT assays as previously described (J. Immunol. Methods 191, 131-142, 1996; J. Exp. Med. 186, 859-865, 1997). […] After 10-min reaction with BICP/NBT alkaline phosphatase substrate (SIGMA), colored spots on the dried membranes were counted using a KS-ELISPOT microscopy system (Carl Zeiss, Jena, Germany).
It was next investigated whether there are any qualitative or quantitative differences in HTLV-I-specific CTL responses among pre-HSCT #37, post-HSCT #37, and donor #36. To examine HTLV-I-specific CTL precursor cell number without experimental biases by in vitro culture, frozen stored PBMC were immediately subjected to ELISPOT assay for IFN-γ production. The results of CTL precursor in the uncultured PBMC of recipient #37 and donor #36 responding to ILT-#37 or Tax epitope are shown in Table 1. […] Values represent the mean±SD of triplicate assays. Further, the results of ELISPOT assay of IFN-γ are shown by spot forming cells (SFC) per 10^5 PBMC.

## SFHSLHLLFEEYTNI [Tax301-315]
[1]
  reaction with responder cells (IFN-γ production against peptide-pulsed TOK cells): selectively reacted

## MAHFPGFGQSLLFGYPVYVFGDCV [Tax1-24]
[2]
  killing of peptide-pulsed LCL-#36 cells by CTL line of post-HSCT patient #37: selectively killed

## LLFEEYTNI [Tax307-315, synthetic oligopeptide of HTLV-I Tax]
[3]; PBMC of donor #36
  IFN-γ-producing SFC/10^5 PBMC, Donor #36: 1 ± 0.6 SFC/10^5 PBMC
[3]; PBMC of post-HSCT patient #37
  IFN-γ-producing SFC/10^5 PBMC, Post-HSCT #37: 2 ± 1 SFC/10^5 PBMC
[3]; PBMC of pre-HSCT patient #37
  IFN-γ-producing SFC/10^5 PBMC, Pre-HSCT #37: 18 ± 2 SFC/10^5 PBMC
